Laboratory results as given in patent publication US20080287375A1, “Selective Glycosidase Inhibitors, Methods of Making Inhibitors, and Uses Thereof” (SIMON FRASER UNIVERSITY, priority 2005, published 2008).
“Also recorded” adds a separate entry of the source. Where two headings read alike, the source gives them in different places.

Assays:
[1] = molecular target: T1, O-GlcNAcase (Homo sapiens, UniProt O60502)
T1 sequence (O60502 1-916): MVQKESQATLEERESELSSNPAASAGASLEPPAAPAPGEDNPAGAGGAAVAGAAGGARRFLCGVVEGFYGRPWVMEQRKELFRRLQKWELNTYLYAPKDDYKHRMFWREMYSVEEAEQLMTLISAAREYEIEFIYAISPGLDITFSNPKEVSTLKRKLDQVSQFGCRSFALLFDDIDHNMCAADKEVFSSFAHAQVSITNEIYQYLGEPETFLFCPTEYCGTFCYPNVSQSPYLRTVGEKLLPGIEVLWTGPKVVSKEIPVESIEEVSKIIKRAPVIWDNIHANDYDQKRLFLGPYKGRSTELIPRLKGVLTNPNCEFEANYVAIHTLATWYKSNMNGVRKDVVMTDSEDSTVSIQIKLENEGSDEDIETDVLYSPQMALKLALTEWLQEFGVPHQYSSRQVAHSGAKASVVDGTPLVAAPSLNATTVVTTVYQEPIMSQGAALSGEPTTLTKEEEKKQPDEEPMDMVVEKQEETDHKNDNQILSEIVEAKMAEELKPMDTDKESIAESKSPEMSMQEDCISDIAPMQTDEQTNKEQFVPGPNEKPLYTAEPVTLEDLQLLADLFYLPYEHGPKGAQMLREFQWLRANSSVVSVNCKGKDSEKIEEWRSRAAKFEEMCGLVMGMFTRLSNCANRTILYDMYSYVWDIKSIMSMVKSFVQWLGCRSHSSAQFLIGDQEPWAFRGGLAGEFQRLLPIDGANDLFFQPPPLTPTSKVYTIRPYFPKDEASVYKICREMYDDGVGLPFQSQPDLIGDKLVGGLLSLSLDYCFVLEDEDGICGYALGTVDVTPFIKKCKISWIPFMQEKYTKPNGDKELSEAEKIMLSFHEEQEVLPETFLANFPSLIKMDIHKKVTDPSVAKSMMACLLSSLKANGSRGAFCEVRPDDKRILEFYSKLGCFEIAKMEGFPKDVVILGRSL

[2] = system: β-hexosaminidase; experiment: Time dependent inactivation of β-hexosaminidase by STZ; settings: 10 mM STZ, pH 4.25, over six hours
[3] = molecular target: O-GlcNAcase; settings: read-out: IC50, O-GlcNAcase, previous determinations; cited from earlier work
[4] = Decomposition of STZ in D2O followed by NMR; settings: room temperature
[5] = molecular target: human placental β-hexosaminidase; experiment: Inhibition of β-hexosaminidase, substrate MU-GlcNAc (5), Dixon plots
[6] = molecular target: T1, O-GlcNAcase; experiment: Time dependent inactivation of O-GlcNAcase by STZ
[7] = system: COS-7 cells; experiment: Proliferation rate and morphology of COS-7 cells incubated with inhibitors; type: cell-based; settings: 50 μM inhibitor
Procedure: (§1) COS-7 cells were cultured in DMEM medium (Invitrogen) supplemented with 5-10% FBS (Invitrogen). Aliquots of inhibitors (50 μL of a stock in 95% ethanol) were delivered onto tissue culture plates and the ethanol was evaporated. The cells were incubated at 37° C. for 40 hours at which time they reached approximately 80% confluence. […] COS-7 cells were cultured to 25% confluence in 5% FBS and an aliquot (100 μL) of inhibitor dissolved in media and filter sterilized was added to each plate to yield a final concentration of 50 μM of inhibitor. COS-7 cells (2×10 cm plates) were harvested at the appropriate times by scraping and were pooled by centrifugation (200×g, 10 min). Cells were washed once with PBS, pH 7.0 (10 mL) and pelleted (200×g, 10 min). The cells could be frozen at −80° C. at this point. Control cultures without inhibitors were treated in the same manner.

[8] = system: O-GlcNAc-modified proteins in COS-7 cells; experiment: Western blot of O-GlcNAc-modified proteins in COS-7 cells cultured with inhibitors; type: cell-based; settings: 50 μM inhibitor, 40 hours, Western blot
Procedure: as §1
A culture of control cells was treated in the same manner as follows but the cultures contained no inhibitor. Cells were harvested as described above. Frozen cells were thawed at 4° C., and cold lysis buffer (1 mL of 50 mM Tris, pH 8.0 containing 150 mM NaCl, 1 mM EDTA, 1 mM PMSF, 1% NP-40, 0.5% sodium deoxycholate, and 1 mM of inhibitor 90) was added. After 10 minutes at 4° C. the solution was centrifuged at 14,000 rpm in an Eppendorf 5415C microcentrifuge and the supernatant was collected. SDS/PAGE loading buffer was added to an aliquot (15 μL) of each sample, and after heating at 96° C. aliquots were loaded onto 10% or 12% Tris-HCl polyacrylamide gels. After electrophoresis, the samples were electroblotted to nitrocellulose membrane (0.45 μm, Bio-Rad). Transfer was verified by visual inspection of the transfer of prestained markers (Dual Colour Precision Plus Protein Standard—Biorad). The membrane was blocked by using 5% BSA (fraction V, Sigma) in PBS (blocking buffer A for samples probed with mouse anti-O-GlcNAc monoclonal IgM antibody (MAb CTD 110.6—Covance)) or 5% low-fat dry powdered milk (blocking buffer B for samples probed with anti-β-actin), pH 7.4, containing 0.1% Tween 20 for 1 h at room temperature or overnight at 4° C. The blocking solution was decanted, and a solution of blocking buffer A containing MAb CTD 110.6 (1:2500 of the stock) or blocking buffer B containing mouse monoclonal anti-β-actin IgG (Clone AC-40—Sigma) was added (1:1000 dilution) as appropriate. The membrane was incubated at room temperature for 1 h or overnight at 4° C. after which the blocking buffer was decanted and the membrane was rinsed with PBS, pH 7.4, containing 0.1% Tween 20 (wash buffer). Membranes were then rinsed for 2×5 min and 3×15 min with wash buffer. For immunological detection of O-GlcNAc, the membrane was incubated in blocking buffer A for 1 hour at RT and, after washing, the membrane was incubated with a secondary goat anti-mouse-IgM-HRP-conjugate (1:2500, Santa Cruz Biotech) for one hour at RT or 4° C. overnight in blocking solution. For detection of β-actin levels, the membrane was incubated with a secondary goat anti-mouse-IgG-HRP conjugate (1:100000, Sigma) for one hour at RT or 4° C. overnight in blocking solution B. Membranes were washed and detection of membrane bound goat anti-mouse-IgG-HRP conjugate was accomplished by chemiluminescent detection using the SuperSignal West Pico Chemiluminescent Detection Kit (Pierce) and film (Kodak Biomax MR).

Row | SMILES | inhibition of O-GlcNAcase, in words [1] | selectivity for O-GlcNAcase over β-hexosaminidase, in words [1] | selectivity ratio for O-GlcNAcase over β-hexosaminidase [1] | Selectivity Ratio (β-Hex KI/O-GlcNAcase KI) ([1]; Table 2) | Ki ([1]; read-out: KI, O-GlcNAcase, pH 6.5) | time dependent inactivation of β-hexosaminidase [2] | IC50 [3] | half-life in aqueous solution (D2O) [4] | Ki ([5]; read-out: KI, β-hexosaminidase, human lysosomal β-hexosaminidase) | Ki ([5]; read-out: β-Hexosaminidase KI, Table 2, substrate 5 at 0.64 mM, pH 4.25, Dixon plots) | time dependent inactivation of O-GlcNAcase ([6]; 10 mM STZ, pH 6.5, over six hours) | expected ratio of reaction velocities VControl/VSTZ, O-GlcNAcase ([6]; calculated assuming competitive inhibition, KI=1.5 mM, 1.2 mM STZ in assay) | proliferation rate or morphology compared to control cells [7] | binding more tightly than GlcNAc, β-hexosaminidase [5] | cellular levels of O-GlcNAc-modified proteins compared to control [8]
1 | CN(N=O)C(=O)N[C@H]1C(O)O[C@H](CO)[C@@H](O)[C@@H]1O (mixture of isomers) [STZ, streptozotocin] | poor inhibitor | moderate selectivity | 31 fold | 31 | 1.5 mM | did not act as a time dependent inactivator; also recorded: does not show a time dependent inactivation | 1 to 2.5 mM | greater than 6 hours | 47 mM | 47 mM | did not act as a time dependent inactivator; also recorded: does not show a time dependent inactivation | 1.17 | – | – | –
2 | CC1=N[C@@H]2[C@@H](O)[C@H](O)[C@@H](CO)O[C@@H]2S1 [Compound 9a, 2′-methyl-α-D-glucopyrano-[2,1-d]-Δ2′-thiazoline, reference compound] | – | – | – | – | – | – | – | – | – | – | – | – | no abnormalities in proliferation rate or morphology | 17000 fold | Marked increases; also recorded: increase in cellular levels of O-GlcNAc-modified proteins
3 | CC(C)CC1=NC2C(OC(CO)C(O)C2O)S1 [Compound 9g, 1,2-dideoxy-2′-isobutyl-α-D-glucopyranoso-[2,1-d]-42′-triazoline D] | good inhibitors | – | – | – | – | – | – | – | – | – | – | – | no abnormalities in proliferation rate or morphology | – | Marked increases; also recorded: increase in cellular levels of O-GlcNAc-modified proteins
